Test results published in ChEMBL document CHEMBL1122174, “Behavioral and serotonin receptor properties of 4-substituted derivatives of the hallucinogen 1-(2,5-dimethoxyphenyl)-2-aminopropane” (J Med Chem, 1982).
Activity calls are given as the source filed them. The calls are words filed in the database; no cut-off is given here.

How the values were obtained:
[1] = target: Serotonin (5-HT) receptor; assay: Binding affinity at rat 5-hydroxytryptamine receptor.; format: protein assay
Rattus norvegicus [2] = assay: Dose required to produce 50% hallucinogenic potency in rat was determined at a dose of 0.125 mg/kg; format: functional
Rattus norvegicus [3] = assay: Dose required to produce 50% hallucinogenic potency in rat was determined at a dose of 0.25 mg/kg; format: functional
Rattus norvegicus [4] = assay: Dose required to produce 50% hallucinogenic potency in rat was determined at a dose of 0.5 mg/kg; format: functional
Rattus norvegicus [5] = assay: Dose required to produce 50% hallucinogenic potency in rat was determined at a dose of 0.75 mg/kg; format: functional
Rattus norvegicus [6] = organism: Rattus norvegicus; assay: Dose at which the rats perform 50% appropriate drug -lever responding was determined; format: functional
Rattus norvegicus [7] = assay: Number of rats responding out of 5 treated rats at a dose of 0.125 mg/Kg; format: functional
Rattus norvegicus [8] = assay: Number of rats responding out of 5 treated rats at a dose of 0.25 mg/Kg; format: functional
Rattus norvegicus [9] = assay: Number of rats responding out of 5 treated rats at a dose of 0.5 mg/Kg; format: functional
Rattus norvegicus [10] = assay: Number of rats responding out of 5 treated rats at a dose of 0.75 mg/Kg; format: functional
Rattus norvegicus [11] = assay: Dose required to produce 50% hallucinogenic potency in rat was determined at a dose of 1 mg/kg; format: functional
Rattus norvegicus [12] = assay: Number of rats responding out of 5 treated rats at a dose of 1 mg/Kg; format: functional
Rattus norvegicus [13] = assay: Dose required to produce 50% hallucinogenic potency in rat was determined at a dose of 4 mg/kg; Disruption behavior; format: functional, organism-based; set-up: dose 4 mg/kg
Rattus norvegicus [14] = assay: Number of rats responding out of 5 treated rats at a dose of 1.5 mg/Kg; format: functional
Homo sapiens = organism: Homo sapiens; assay: Hallucinogenic potency was determined in humans; format: functional
Rattus norvegicus [15] = assay: Dose required to produce 50% hallucinogenic potency in rat was determined at a dose of 1.5 mg/kg; format: functional
Rattus norvegicus [16] = assay: Dose required to produce 50% hallucinogenic potency in rat was determined at a dose of 0.1 mg/kg; format: functional
Rattus norvegicus [17] = assay: Dose required to produce 50% hallucinogenic potency in rat was determined at a dose of 0.15 mg/kg; format: functional
Rattus norvegicus [18] = assay: Dose required to produce 50% hallucinogenic potency in rat was determined at a dose of 0.2 mg/kg; format: functional
Rattus norvegicus [19] = assay: Number of rats responding out of 5 treated rats at a dose of 0.10 mg/Kg; format: functional
Rattus norvegicus [20] = assay: Number of rats responding out of 5 treated rats at a dose of 0.15 mg/Kg; format: functional
Rattus norvegicus [21] = assay: Number of rats responding out of 5 treated rats at a dose of 0.20 mg/Kg; format: functional
Rattus norvegicus [22] = assay: Dose required to produce 50% hallucinogenic potency in rat was determined at a dose of 4 mg/kg; format: functional
Rattus norvegicus [23] = assay: Dose required to produce 50% hallucinogenic potency in rat was determined at a dose of 2 mg/kg; format: functional
Rattus norvegicus [24] = assay: Number of rats responding out of 5 treated rats at a dose of 2 mg/Kg; format: functional
Rattus norvegicus [25] = assay: Number of rats responding out of 5 treated rats at a dose of 4 mg/Kg; format: functional
Rattus norvegicus [26] = assay: Number of rats responding out of 5 treated rats at a dose of 5 mg/Kg; format: functional
Rattus norvegicus [27] = assay: Dose required to produce 50% hallucinogenic potency in rat was determined at a dose of 3 mg/kg; format: functional
Rattus norvegicus [28] = assay: Number of rats responding out of 5 treated rats at a dose of 3 mg/Kg; format: functional
Rattus norvegicus [29] = assay: Dose required to produce 50% hallucinogenic potency in rat was determined at a dose of 2.5 mg/kg; format: functional
Rattus norvegicus [30] = assay: Number of rats responding out of 5 treated rats at a dose of 2.5 mg/Kg; format: functional

| SMILES | pA2 [1] | DOM (Rattus norvegicus [4]) [%] | DOM (Rattus norvegicus [5]) [%] | ED50 (Rattus norvegicus [6]) [mg/kg] | No. of animals (Rattus norvegicus [9]) | No. of animals (Rattus norvegicus [10]) | DOM (Rattus norvegicus [11]) [%] | No. of animals (Rattus norvegicus [12]) | DOM (Rattus norvegicus [13]) | DOM (Rattus norvegicus [23]) [%] | No. of animals (Rattus norvegicus [24]) | DOM (Rattus norvegicus [27]) [%] | other results |
| --- | --- | --- | --- | --- | --- | --- | --- | --- | --- | --- | --- | --- | --- |
| COc1cc(C[C@@H](C)N)c(OC)cc1I | 7.63 | 75 | 96 | 0.26 | 5 | 5 |  |  |  |  |  |  | DOM (Rattus norvegicus [2]): 18%; DOM (Rattus norvegicus [3]): 47%; No. of animals (Rattus norvegicus [7]): 5; No. of animals (Rattus norvegicus [8]): 5 |
| COc1cc([N+](=O)[O-])c(OC)cc1C[C@@H](C)N | 7.49 | 44 | 61 | 0.57 | 5 | 5 | 93 | 5 |  |  |  |  |  |
| COc1ccc(C[C@@H](C)N)cc1 |  | 18 |  |  | 5 |  | 20 | 3 | inactive |  |  |  | No. of animals (Rattus norvegicus [14]): 1 |
| COc1cc(C[C@H](C)N)c(OC)cc1Br |  | 20 | 35 | 0.81 | 5 | 5 |  |  |  |  |  |  | HHP (Homo sapiens): 4 mg; DOM (Rattus norvegicus [15]): 96%; No. of animals (Rattus norvegicus [14]): 5 |
| COc1cc(C[C@@H](C)N)c(OC)cc1Br |  |  |  | 0.1 |  |  |  |  |  |  |  |  | HHP (Homo sapiens): 0.4 mg; DOM (Rattus norvegicus [16]): 47%; DOM (Rattus norvegicus [17]): 79%; DOM (Rattus norvegicus [18]): 91%; No. of animals (Rattus norvegicus [19]): 5; No. of animals (Rattus norvegicus [20]): 5; No. of animals (Rattus norvegicus [21]): 5 |
| COc1cccc(CC(C)N)c1 (racemic) |  |  |  |  |  |  |  |  | inactive | 8 | 5 |  | DOM (Rattus norvegicus [22]): 10%; No. of animals (Rattus norvegicus [25]): 3; No. of animals (Rattus norvegicus [26]): 1 |
| COc1ccccc1CC(C)N (racemic) |  |  |  |  |  |  |  |  | inactive | 2 | 5 | 7 | No. of animals (Rattus norvegicus [28]): 4; No. of animals (Rattus norvegicus [25]): 2 |
| COc1cc(Br)c(OC)c(CC(C)N)c1 (racemic) |  |  |  |  |  |  | 2 | 5 |  | 3 | 5 | 0 | No. of animals (Rattus norvegicus [28]): 4 |
| COc1cc(CC(C)N)c(OC)cc1F (racemic) | 7.2 | 6 | 25 | 1.45 | 5 | 5 | 43 | 5 |  |  |  | 88 | DOM (Rattus norvegicus [15]): 45%; DOM (Rattus norvegicus [29]): 66%; No. of animals (Rattus norvegicus [30]): 5 |
